Molecular target: T1, Na—K—Cl co-transporter (Homo sapiens, UniProt P55011)
T1 construct: endogenous in cells; host or cells: cultured human trabecular meshwork (TM) cells, normal or glaucomatous donors
T1 sequence (P55011 1-1212): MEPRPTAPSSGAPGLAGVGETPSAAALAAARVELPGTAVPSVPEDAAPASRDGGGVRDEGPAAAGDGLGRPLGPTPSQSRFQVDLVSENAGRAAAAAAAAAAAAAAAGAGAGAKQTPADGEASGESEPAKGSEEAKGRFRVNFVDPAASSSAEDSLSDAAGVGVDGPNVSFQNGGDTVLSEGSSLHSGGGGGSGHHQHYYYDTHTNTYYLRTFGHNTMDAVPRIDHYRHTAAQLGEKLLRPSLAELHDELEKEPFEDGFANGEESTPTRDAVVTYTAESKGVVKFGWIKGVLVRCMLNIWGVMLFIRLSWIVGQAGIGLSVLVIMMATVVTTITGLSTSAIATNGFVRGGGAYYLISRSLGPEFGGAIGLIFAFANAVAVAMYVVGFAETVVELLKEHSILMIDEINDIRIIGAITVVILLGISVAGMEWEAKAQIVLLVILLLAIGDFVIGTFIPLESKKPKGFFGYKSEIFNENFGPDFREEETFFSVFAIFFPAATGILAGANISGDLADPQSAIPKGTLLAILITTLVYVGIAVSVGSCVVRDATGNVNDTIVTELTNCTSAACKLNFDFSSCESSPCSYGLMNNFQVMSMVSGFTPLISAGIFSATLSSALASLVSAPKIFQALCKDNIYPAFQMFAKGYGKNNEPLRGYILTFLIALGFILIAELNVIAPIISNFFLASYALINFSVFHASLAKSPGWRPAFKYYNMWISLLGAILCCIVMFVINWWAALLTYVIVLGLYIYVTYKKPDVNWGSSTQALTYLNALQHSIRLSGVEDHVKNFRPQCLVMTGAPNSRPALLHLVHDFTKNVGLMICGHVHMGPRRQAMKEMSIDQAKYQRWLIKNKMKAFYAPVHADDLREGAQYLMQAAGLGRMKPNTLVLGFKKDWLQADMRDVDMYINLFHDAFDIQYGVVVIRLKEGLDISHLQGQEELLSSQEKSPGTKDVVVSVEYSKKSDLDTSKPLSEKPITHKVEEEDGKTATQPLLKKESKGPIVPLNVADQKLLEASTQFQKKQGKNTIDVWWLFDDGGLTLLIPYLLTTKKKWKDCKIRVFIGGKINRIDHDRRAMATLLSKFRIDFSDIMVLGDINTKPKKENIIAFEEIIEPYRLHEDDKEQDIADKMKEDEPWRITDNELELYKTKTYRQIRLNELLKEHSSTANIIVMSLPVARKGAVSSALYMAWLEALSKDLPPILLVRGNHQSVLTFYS
Test: Na—K—Cl co-transport measured as bumetamide-sensitive K influx (86Rb tracer) in human TM cell monolayers
Type: cell-based
Details: human TM cells
Experimental: Na—K—Cl co-transport was measured as ouabain-insensitive, bumetamide-sensitive potassium influx, using ^86Rb as a tracer for potassium. […] The assay medium also contained ^86Rb (1 μCi/ml) (Dupont New England Nuclear, Boston, Mass.). The assay was terminated by rinsing the wells with ice-cold isotonic MgCl2, then extracting the contents with 0.2% sodium dodecyl sulfate (SDS), and determining the amount of radioactive contents by liquid scintillation. Osmolarities of all preincubation and assay media were verified by osmometry (Model 3W2, Advanced Instruments, Norwood, Mass.).
The cells were pretreated with Hepes-buffered minimal essential medium (MEM) ±10 μM bumetamide ±1 mM ouabain for 5 min, then assayed for 5 min in the same media plus ^86Rb. […] Data are means ±SEM, n=12.
Na—K—Cl co-transport activity of glaucomatous human TM cells was assessed as ouabain-insensitive, bumetamide-sensitive K influx, using ^86Rb as a tracer for K, as described previously. TM cells were preincubated for 5 minutes in a Hepes-buffered MEM containing 0 or 10 μM bumetamide in the presence of 1 mM ouabain, followed by a 5 minute assay in media of identical composition except that they also contained ^86Rb. […] Data are mean values ±SEM in seven normal TM cultures (donor age range, 38-68 years, n=12 in each cell culture) and in seven glaucomatous cultures (donor age range 41-75 years, n=7 in each cell culture).
Human TM cells were equilibrated in Hepes-buffered MEM for 30 minutes and then pretreated for 5 minutes in media containing 1 mM ouabain, 10 or 0 μM bumetamide, and 0.3 μM to 1 mM niflumic acid (NA). Cells were then assayed for bumetamide-sensitive K influx for 5 minutes in media identical to the pretreatment media but also containing ^86Rb (1 μCi/ml). […] Dashed line indicates control level of Na—K—Cl co-transport. Data are means ±SEM of at least 4 determinations from 3 experiments.

O=C(O)c1cccnc1Nc1cccc(C(F)(F)F)c1 [niflumic acid]
K influx value versus 0 mM NA control (niflumic acid 0.1 μM): not significantly different
Na—K—Cl co-transporter activity (niflumic acid 0.3 μM to 100 μM): significantly stimulate
